From patent US20080153896A1, “Polymorphic Forms of an HMG-CoA Reductase Inhibitor and Uses Thereof” (priority 2006, published 2008)

Test: Stability (integrity) testing of amorphous and polymorphic form under storage conditions, RP-HPLC
Type: physicochemical
Design: Impurity RRT 1.104 / Impurity RRT 1.698: unit not given beside the values
Procedure, shortened: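 Amorphous form and three batches of polymorphic Form I of the hemi calcium salt were stored under different atmospheric conditions. Purity measured by RP-HPLC on C18 with UV detection, drug as percent of total absorption; total impurity from summed impurity peak areas, impurities identified by relative retention time.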

[1] = 25° C./60% RH 12M, hemi calcium salt
[2] = 30° C./65% RH 1M, hemi calcium salt
[3] = 30° C./65% RH 2M, hemi calcium salt
[4] = 30° C./65% RH 3M, hemi calcium salt
[5] = 30° C./65% RH 6M, hemi calcium salt
[6] = 30° C./65% RH 9M, hemi calcium salt
[7] = 30° C./65% RH 12M, hemi calcium salt
[8] = 40° C./75% RH 1M, hemi calcium salt
[9] = 40° C./75% RH 2M, hemi calcium salt
[10] = 40° C./75% RH 3M, hemi calcium salt
[11] = 40° C./75% RH 6M, hemi calcium salt
[12] = Initial, listed as Batch 2 of Polymorphic Form I, hemi calcium salt

Impurity RRT 1.439 (25° C./60% RH 12M): 0.152
Impurity RRT 1.596 (25° C./60% RH 12M): 0.046
Impurity RRT 1.698 (25° C./60% RH 12M): 0.053
Assay [1]: 98.25 % W/W
Highest Impurity [1]: 0.407
Impurity RRT 0.935 [1]: 0.365
Impurity RRT 1.045 [1]: 0.407
Impurity RRT 1.640 [1]: 0.052
Total Impurity [1]: 1.522
Water [1]: 5.02 % W/W
Description (30° C./65% RH 1M): White
Impurity RRT 1.096 (30° C./65% RH 1M): 0.24
Impurity RRT 1.439 (30° C./65% RH 1M): 0.151
Impurity RRT 1.596 (30° C./65% RH 1M): 0.076
Impurity RRT 1.698 (30° C./65% RH 1M): 0.065
Water (30° C./65% RH 1M): 4.16 % W/W
Assay [2]: 98.23 % W/W
Highest Impurity [2]: 0.444
Impurity RRT 0.935 [2]: 0.396
Impurity RRT 1.045 [2]: 0.444
Impurity RRT 1.64 [2]: 0.06
Total Impurity [2]: 1.44
Description (30° C./65% RH 2M): White
Impurity RRT 1.096 (30° C./65% RH 2M): 0.242
Impurity RRT 1.183 (30° C./65% RH 2M): 0.063
Impurity RRT 1.439 (30° C./65% RH 2M): 0.165
Impurity RRT 1.596 (30° C./65% RH 2M): 0.074
Impurity RRT 1.698 (30° C./65% RH 2M): 0.069
Assay [3]: 98.20 % W/W
Highest Impurity [3]: 0.449
Impurity RRT 0.935 [3]: 0.411
Impurity RRT 1.045 [3]: 0.449
Impurity RRT 1.64 [3]: 0.063
Total Impurity [3]: 1.54
Water [3]: 4.16 % W/W
Description (30° C./65% RH 3M): White
Impurity RRT 1.096 (30° C./65% RH 3M): 0.229
Impurity RRT 1.439 (30° C./65% RH 3M): 0.158
Impurity RRT 1.596 (30° C./65% RH 3M): 0.074
Impurity RRT 1.698 (30° C./65% RH 3M): 0.062
Assay [4]: 98.14 % W/W
Highest Impurity [4]: 0.437
Impurity RRT 0.935 [4]: 0.399
Impurity RRT 1.045 [4]: 0.437
Impurity RRT 1.64 [4]: 0.058
Total Impurity [4]: 1.42
Water [4]: 5.02 % W/W
Description (30° C./65% RH 6M): White
Impurity RRT 1.096 (30° C./65% RH 6M): 0.218
Impurity RRT 1.439 (30° C./65% RH 6M): 0.156
Impurity RRT 1.596 (30° C./65% RH 6M): 0.070
Impurity RRT 1.698 (30° C./65% RH 6M): 0.063
Assay [5]: 98.09 % W/W
Highest Impurity [5]: 0.460
Impurity RRT 0.935 [5]: 0.409
Impurity RRT 1.045 [5]: 0.460
Impurity RRT 1.640 [5]: 0.054
Total Impurity [5]: 1.430
Water [5]: 4.96 % W/W
Description (30° C./65% RH 9M): White
Impurity RRT 1.096 (30° C./65% RH 9M): 0.232
Impurity RRT 1.183 (30° C./65% RH 9M): 0.036
Impurity RRT 1.439 (30° C./65% RH 9M): 0.182
Impurity RRT 1.596 (30° C./65% RH 9M): 0.053
Impurity RRT 1.698 (30° C./65% RH 9M): 0.048
Assay [6]: 98.07 % W/W
Highest Impurity [6]: 0.442
Impurity RRT 0.935 [6]: 0.404
Impurity RRT 1.045 [6]: 0.442
Impurity RRT 1.640 [6]: 0.058
Total Impurity [6]: 1.455
Water [6]: 5.10 % W/W
Description (30° C./65% RH 12M): White
Impurity RRT 0.138 (30° C./65% RH 12M): 0.200
Impurity RRT 1.096 (30° C./65% RH 12M): 0.192
Impurity RRT 1.183 (30° C./65% RH 12M): 0.048
Impurity RRT 1.439 (30° C./65% RH 12M): 0.163
Impurity RRT 1.596 (30° C./65% RH 12M): 0.065
Impurity RRT 1.698 (30° C./65% RH 12M): 0.045
Assay [7]: 98.35 % W/W
Highest Impurity [7]: 0.399
Impurity RRT 0.935 [7]: 0.399
Impurity RRT 1.045 [7]: 0.360
Impurity RRT 1.640 [7]: 0.048
Total Impurity [7]: 1.520
Water [7]: 4.87 % W/W
Description (40° C./75% RH 1M): White
Impurity RRT 1.096 (40° C./75% RH 1M): 0.244
Impurity RRT 1.439 (40° C./75% RH 1M): 0.153
Impurity RRT 1.596 (40° C./75% RH 1M): 0.080
Impurity RRT 1.698 (40° C./75% RH 1M): 0.062
Assay [8]: 98.15 % W/W
Highest Impurity [8]: 0.444
Impurity RRT 0.935 [8]: 0.404
Impurity RRT 1.045 [8]: 0.444
Impurity RRT 1.64 [8]: 0.061
Total Impurity [8]: 1.45
Water [8]: 4.71 % W/W
Description (40° C./75% RH 2M): White
Impurity RRT 1.096 (40° C./75% RH 2M): 0.234
Impurity RRT 1.183 (40° C./75% RH 2M): 0.072
Impurity RRT 1.439 (40° C./75% RH 2M): 0.175
Impurity RRT 1.596 (40° C./75% RH 2M): 0.079
Impurity RRT 1.698 (40° C./75% RH 2M): 0.065
Assay [9]: 98.19 % W/W
Highest Impurity [9]: 0.457
Impurity RRT 0.935 [9]: 0.416
Impurity RRT 1.045 [9]: 0.457
Impurity RRT 1.64 [9]: 0.066
Total Impurity [9]: 1.56
Water [9]: 4.35 % W/W
Description (40° C./75% RH 3M): White
Impurity RRT 1.096 (40° C./75% RH 3M): 0.229
Impurity RRT 1.439 (40° C./75% RH 3M): 0.165
Impurity RRT 1.596 (40° C./75% RH 3M): 0.078
Impurity RRT 1.698 (40° C./75% RH 3M): 0.06
Assay [10]: 98.09 % W/W
Highest Impurity [10]: 0.442
Impurity RRT 0.935 [10]: 0.413
Impurity RRT 1.045 [10]: 0.442
Impurity RRT 1.64 [10]: 0.056
Total Impurity [10]: 1.44
Water [10]: 4.45 % W/W
Description (40° C./75% RH 6M): White
Impurity RRT 0.138 (40° C./75% RH 6M): 0.270
Impurity RRT 1.096 (40° C./75% RH 6M): 0.217
Impurity RRT 1.439 (40° C./75% RH 6M): 0.146
Impurity RRT 1.596 (40° C./75% RH 6M): 0.073
Impurity RRT 1.698 (40° C./75% RH 6M): 0.052
Assay [11]: 98.14 % W/W
Highest Impurity [11]: 0.410
Impurity RRT 0.935 [11]: 0.377
Impurity RRT 1.045 [11]: 0.410
Impurity RRT 1.640 [11]: 0.045
Total Impurity [11]: 1.590
Water [11]: 5.45 % W/W
Description (Initial): White
Impurity RRT 1.096 (Initial): 0.229
Impurity RRT 1.439 (Initial): 0.168
Impurity RRT 1.596 (Initial): 0.075
Impurity RRT 1.698 (Initial): 0.062
Assay [12]: 98.45 % W/W
Highest Impurity [12]: 0.457
Impurity RRT 0.935 [12]: 0.413
Impurity RRT 1.045 [12]: 0.457
Impurity RRT 1.64 [12]: 0.057
Total Impurity [12]: 1.46
Water [12]: 4.92 % W/W
SMILES: CC(C)c1c(C(=O)Nc2ccc(CO)cc2)c(-c2ccccc2)c(-c2ccc(F)cc2)n1CC[C@@H](O)C[C@@H](O)CC(=O)[O-].CC(C)c1c(C(=O)Nc2ccc(CO)cc2)c(-c2ccccc2)c(-c2ccc(F)cc2)n1CC[C@@H](O)C[C@@H](O)CC(=O)[O-].[Ca+2] [PP00105, (3R, 5R)-7-[2-(4-fluorophenyl)-5-isopropyl-3-phenyl-4-[(4-hydroxymethylphenylamino)carbonyl]-pyrrol-1-yl]-3,5-dihydroxy-heptanoic acid, hemi calcium salt]
